Literature values, collected in US7183112B2, “Uses for anti-malarial therapeutic agents” (APT Pharmaceuticals, LLC, priority 1999, dated 2007).
Where a name gives a salt, the structure may show the parent alone. Read-outs that look alike come from different tables or passages of the source.

Experiments:
[1] = cited from earlier work
allergic asthma = conditions: Fahy et al. 1999, cited from earlier work

Compound | solubility in water [1] | efficacy for treating allergic asthma (allergic asthma; inhalation) | efficacy for treating allergic asthma (allergic asthma; intravenous administration)
CCN(CCO)CCCC(C)Nc1ccnc2cc(Cl)ccc12 (stereo not drawn) [hydroxychloroquine sulfate] | readily soluble |  | 
Anti IgE(E25): Anti IgE(E25), given intravenously or by inhalation for allergic asthma (Fahy et al.) |  | virtually ineffective | effective
